From US10669284B2, “Fused thiazolopyrimidine derivatives as MNKS inhibitors” (LIFEARC, priority 2015, dated 2020) come the findings set out here.

The target of experiment [1] is T1, ULK2 (Homo sapiens, UniProt Q8IYT8).
T1 sequence (Q8IYT8 1-1036): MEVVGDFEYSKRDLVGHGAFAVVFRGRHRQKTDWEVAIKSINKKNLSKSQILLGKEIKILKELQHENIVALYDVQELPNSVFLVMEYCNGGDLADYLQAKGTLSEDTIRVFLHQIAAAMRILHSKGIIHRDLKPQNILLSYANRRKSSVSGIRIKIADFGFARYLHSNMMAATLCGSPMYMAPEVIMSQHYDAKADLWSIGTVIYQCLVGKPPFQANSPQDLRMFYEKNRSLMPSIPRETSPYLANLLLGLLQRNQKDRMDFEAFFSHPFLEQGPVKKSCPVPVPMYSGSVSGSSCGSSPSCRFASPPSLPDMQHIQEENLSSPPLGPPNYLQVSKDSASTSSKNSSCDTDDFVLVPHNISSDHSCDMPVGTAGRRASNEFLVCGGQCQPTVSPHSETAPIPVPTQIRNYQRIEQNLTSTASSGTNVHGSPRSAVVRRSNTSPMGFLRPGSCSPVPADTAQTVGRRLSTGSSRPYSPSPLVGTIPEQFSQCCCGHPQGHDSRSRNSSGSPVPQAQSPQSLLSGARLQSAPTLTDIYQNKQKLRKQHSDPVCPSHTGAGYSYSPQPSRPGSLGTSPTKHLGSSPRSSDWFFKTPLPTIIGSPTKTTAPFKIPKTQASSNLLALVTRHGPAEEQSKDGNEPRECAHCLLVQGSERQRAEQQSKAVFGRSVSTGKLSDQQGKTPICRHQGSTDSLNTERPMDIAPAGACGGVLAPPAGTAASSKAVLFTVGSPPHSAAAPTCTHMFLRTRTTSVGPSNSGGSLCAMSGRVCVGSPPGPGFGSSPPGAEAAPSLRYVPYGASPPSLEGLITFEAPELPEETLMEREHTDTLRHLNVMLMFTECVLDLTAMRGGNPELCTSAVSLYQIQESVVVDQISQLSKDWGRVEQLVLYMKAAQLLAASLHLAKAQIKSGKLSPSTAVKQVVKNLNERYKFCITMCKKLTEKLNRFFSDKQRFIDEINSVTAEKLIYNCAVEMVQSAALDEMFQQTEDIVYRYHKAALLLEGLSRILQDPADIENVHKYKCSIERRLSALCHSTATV
The experiment can be described thus: Kinase selectivity screen ULK2. The settings on record: read-out: % inhibition of ULK2.

In experiment [2] the target is MKNK2 (Homo sapiens, UniProt Q9HBH9). Description: Kinase selectivity screen MKNK2. It is filed as biochemical. Particulars: 1 μM compound.
Chain of MKNK2 (Q9HBH9 whole entry): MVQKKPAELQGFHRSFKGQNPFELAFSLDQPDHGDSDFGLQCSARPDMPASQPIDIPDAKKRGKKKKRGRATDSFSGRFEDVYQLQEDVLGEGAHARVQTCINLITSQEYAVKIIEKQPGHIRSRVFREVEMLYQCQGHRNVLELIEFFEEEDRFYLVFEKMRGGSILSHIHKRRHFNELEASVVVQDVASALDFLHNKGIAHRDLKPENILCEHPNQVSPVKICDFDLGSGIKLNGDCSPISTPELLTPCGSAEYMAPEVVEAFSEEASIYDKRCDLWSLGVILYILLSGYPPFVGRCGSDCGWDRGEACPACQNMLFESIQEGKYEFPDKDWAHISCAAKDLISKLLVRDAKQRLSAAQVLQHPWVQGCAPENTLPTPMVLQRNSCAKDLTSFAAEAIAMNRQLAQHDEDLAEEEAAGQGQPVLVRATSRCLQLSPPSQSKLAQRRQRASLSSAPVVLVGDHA
The target of experiment [3] is T2, STK11 (Homo sapiens, UniProt Q15831).
T2 sequence (Q15831 1-433): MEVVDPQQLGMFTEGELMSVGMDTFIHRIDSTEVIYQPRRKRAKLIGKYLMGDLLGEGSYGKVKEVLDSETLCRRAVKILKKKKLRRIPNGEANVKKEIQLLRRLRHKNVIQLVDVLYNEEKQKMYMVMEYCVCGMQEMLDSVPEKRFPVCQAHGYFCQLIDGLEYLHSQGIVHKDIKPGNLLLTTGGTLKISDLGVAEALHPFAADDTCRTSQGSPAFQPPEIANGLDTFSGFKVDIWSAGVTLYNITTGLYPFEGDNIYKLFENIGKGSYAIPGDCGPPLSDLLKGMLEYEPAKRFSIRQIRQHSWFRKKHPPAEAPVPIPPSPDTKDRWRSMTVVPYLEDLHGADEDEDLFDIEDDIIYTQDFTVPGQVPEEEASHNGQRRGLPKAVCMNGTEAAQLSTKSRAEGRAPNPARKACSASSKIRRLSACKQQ
T2 sequence (Q7RTN6 1-431 partner): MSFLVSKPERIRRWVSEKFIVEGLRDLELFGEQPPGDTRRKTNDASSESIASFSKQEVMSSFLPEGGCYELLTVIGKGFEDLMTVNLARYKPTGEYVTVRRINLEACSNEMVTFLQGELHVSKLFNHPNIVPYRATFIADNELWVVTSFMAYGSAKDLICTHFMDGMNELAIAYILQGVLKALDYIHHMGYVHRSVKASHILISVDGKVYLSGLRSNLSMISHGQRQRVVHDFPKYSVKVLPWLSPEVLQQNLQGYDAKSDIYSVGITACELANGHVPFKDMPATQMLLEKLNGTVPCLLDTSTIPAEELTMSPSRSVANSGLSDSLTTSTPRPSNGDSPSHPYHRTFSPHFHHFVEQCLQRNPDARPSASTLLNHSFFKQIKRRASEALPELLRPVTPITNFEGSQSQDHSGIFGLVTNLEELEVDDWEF
T2 sequence (Q9Y376 1-341 partner): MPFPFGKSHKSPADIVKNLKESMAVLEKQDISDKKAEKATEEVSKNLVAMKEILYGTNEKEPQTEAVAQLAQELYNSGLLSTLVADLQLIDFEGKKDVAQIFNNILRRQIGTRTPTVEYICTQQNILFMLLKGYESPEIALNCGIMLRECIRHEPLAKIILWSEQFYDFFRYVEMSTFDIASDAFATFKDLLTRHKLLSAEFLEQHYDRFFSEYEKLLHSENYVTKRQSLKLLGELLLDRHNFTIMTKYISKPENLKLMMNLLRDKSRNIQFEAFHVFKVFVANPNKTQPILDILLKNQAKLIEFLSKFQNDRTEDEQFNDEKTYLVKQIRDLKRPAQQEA
The experiment can be described thus: Kinase selectivity screen STK11. Particulars: read-out: % inhibition of STK11.

In general, inhibition refers to the share of the control response that was lost under treatment.

Turning to `O=C(NCC1CCNCC1)c1nc2c(N3CCc4cc(F)ccc43)ncnc2s1` [Example 58, 7-(5-fluoroindolin-1-yl)-N-(4-piperidylmethyl)thiazolo[5,4-d]pyrimidine-2-carboxamide], the inhibition at 1 µM in experiment [1] came to 21%; in experiment [2], 93%; in experiment [3], 7%.
Turning to `CN(C)CCCNC(=O)c1nc2c(N3CCc4cc(F)ccc43)ncnc2s1` [Example 64, N-[3-(dimethylamino)propyl]-7-(5-fluoroindolin-1-yl)thiazolo[5,4-d]pyrimidine-2-carboxamide], the inhibition at 1 µM in experiment [1] was 81%; in experiment [2] it was 96%; in experiment [3], 10%.
The corresponding values for `CC(C)Oc1cc(F)ccc1Nc1ncnc2sc(C(=O)NCC3CCNCC3)nc12` [Example 10, 7-(4-fluoro-2-isopropoxy-anilino)-N-(4-piperidylmethyl)thiazolo[5,4-d]pyrimidine-2-carboxamide] are 0%, 81% and 21%.
